The source of these data is patent US20060198900A1, “Bioactive Agent Compositions for Repair of Cell Injuries” (Nutritional Bioscience Limited, priority 2004, published 2006).

“Also recorded” adds a separate entry of the source.

In data set [1] the test system is recurrent herpes simplex infection (cold sores). As to conditions: oral 600-1000 mg per day in two doses; increasing from 46 days; cited from earlier work.
The next data set deals with Caco2-BBe cells. As to conditions: relatively small amount, 1 mg protein/ml; cited from earlier work.
In data set [2] the test system is indomethacin-induced rat gastric damaging model. In words: Indomethacin-induced rat gastric damaging model. The class given is in vivo. As to conditions: 1% via gavage before indomethacin.
Data set [3] concerns human colonic cancer cell line HT-29. The data set is described as follows: Cell restitution (migration) assay in wounded HT-29 monolayers. In kind it is cell-based. As to conditions: 10 ug/ml, 8 hours after wounding. As for the experimental part: Accordingly, the human colonic cancer cell line HT-29 was grown to confluence in six well plates in a solution of DMEM-containing glutamine and 10% fetal calf serum. The monolayers of the cells were then wounded by scraping a disposable pipette tip across the dishes, washed with fresh serum-free medium, and then cultured in a serum-free medium in the presence of 1 mg/ml, 2 mg/ml, and 5 mg/ml colostrum solutions. The rate of movement of the anterior edges of the wounded monolayer cells was then determined by taking serial photomicrographs at various times after wounding (i.e., 0, 4, 8, 12, and 24) hours, using an inverted Nikon TS100 microscope and a Nikon Coolpix 800 digital camera with 100-fold magnification. Identical regions were examined at each time point by premarking the base of the plates to facilitate alignment. […] Each wound was examined in at least three different regions, and expressed as mean and SEM of three separate experiments.
The next study analyzed the potential added benefit of using colostrum rather than milk based product. […] The distance migrated by the leading edge of the cells 8 hours after wounding was then assessed. […]
The next study analysed the potential added benefit of using licorice as a stimulant of restitution. […] The distance migrated by the leading edge of the cells 8 hours after wounding was then assessed. […]

In the case of `Nc1nc2c(ncn2COCCO)c(=O)[nH]1` [acyclovir], in data set [1], the “mean time to recurrence of cold sores” value is 118 days.

`O=c1c(-c2ccc(O)cc2)coc2cc(O)cc(O)c12` [genistein]: the “growth of Caco2-BBe cells” value with Caco2-BBe cells is “increase some parameters of growth”.

For the compound `O=C([O-])O.[Na+]` [sodium bicarbonate], in data set [2], the “reduction of degree of gastric injury compared to saline control” value was “about 75%”.

For “epidermal growth factor [EGF, peptide growth factor used as positive control]”, the “amount of migration of leading edge versus DMEM alone” value in data set [3] was “two-fold increase; also recorded: increased the amount of cell movement”.
